Laboratory results as given in ChEMBL document CHEMBL4507329, “Data for DCP probe BTZO-1” (2021).

Tests used:
[1] = target: D(2) dopamine receptor (Homo sapiens) (UniProt P14416); details: Compound concentration 10.0 uM
[2] = target: Serine/threonine-protein kinase DCLK1 (Homo sapiens) (UniProt O15075); details: Compound concentration 1000.0 nM
[3] = target: Receptor-type tyrosine-protein kinase FLT3 (Homo sapiens) (UniProt P36888); details: Compound concentration 1000.0 nM
[4] = system: Tyrosine-protein kinase ABL1 (Homo sapiens), P00519 [Q252H]; details: Compound concentration 1000.0 nM
[5] = target: Serine/threonine-protein kinase MAK (Homo sapiens) (UniProt P20794); details: Compound concentration 1000.0 nM
[6] = target: Serine/threonine-protein kinase 38-like (Homo sapiens) (UniProt Q9Y2H1); details: Compound concentration 1000.0 nM
[7] = target: Tyrosine-protein kinase receptor UFO (Homo sapiens) (UniProt P30530); details: Compound concentration 1000.0 nM
[8] = target: Tyrosine-protein kinase receptor TYRO3 (Homo sapiens) (UniProt Q06418); details: Compound concentration 1000.0 nM
[9] = target: Receptor-interacting serine/threonine-protein kinase 1 (Homo sapiens) (UniProt Q13546); details: Compound concentration 1000.0 nM
[10] = target: Serine/threonine-protein kinase PAK 3 (Homo sapiens) (UniProt O75914); details: Compound concentration 1000.0 nM
[11] = target: RAC-alpha serine/threonine-protein kinase (Homo sapiens) (UniProt P31749); details: Compound concentration 1000.0 nM
[12] = target: Serine/threonine-protein kinase TNNI3K (Homo sapiens) (UniProt Q59H18); details: Compound concentration 1000.0 nM
[13] = system: Proto-oncogene tyrosine-protein kinase receptor Ret (Homo sapiens), P07949 [V804M]; details: Compound concentration 1000.0 nM
[14] = target: Serine/threonine-protein kinase ICK (Homo sapiens) (UniProt Q9UPZ9); details: Compound concentration 1000.0 nM
[15] = target: 5'-AMP-activated protein kinase catalytic subunit alpha-1 (Homo sapiens) (UniProt Q13131); details: Compound concentration 1000.0 nM
[16] = target: Serine/threonine-protein kinase 4 (Homo sapiens) (UniProt Q13043); details: Compound concentration 1000.0 nM
[17] = target: Phosphatidylinositol 4,5-bisphosphate 3-kinase catalytic subunit delta isoform (Homo sapiens) (UniProt O00329); details: Compound concentration 1000.0 nM
[18] = system: Phosphatidylinositol 4,5-bisphosphate 3-kinase catalytic subunit alpha isoform (Homo sapiens), P42336 [I800L]; details: Compound concentration 1000.0 nM
[19] = target: Cyclin-dependent kinase 4 (Homo sapiens) (UniProt P11802); details: Compound concentration 1000.0 nM
[20] = target: Casein kinase II subunit alpha (Homo sapiens) (UniProt P68400); details: Compound concentration 1000.0 nM
[21] = target: Serine/threonine-protein kinase 32C (Homo sapiens) (UniProt Q86UX6); details: Compound concentration 1000.0 nM
[22] = target: Dual specificity tyrosine-phosphorylation-regulated kinase 2 (Homo sapiens) (UniProt Q92630); details: Compound concentration 1000.0 nM
[23] = target: Ephrin type-B receptor 6 (Homo sapiens) (UniProt O15197); details: Compound concentration 1000.0 nM
[24] = target: Serine/threonine-protein kinase Sgk3 (Homo sapiens) (UniProt Q96BR1); details: Compound concentration 1000.0 nM
[25] = target: Serine/threonine-protein kinase ULK3 (Homo sapiens) (UniProt Q6PHR2); details: Compound concentration 1000.0 nM
[26] = target: Interleukin-1 receptor-associated kinase 1 (Homo sapiens) (UniProt P51617); details: Compound concentration 1000.0 nM
[27] = target: Serine/threonine-protein kinase NIM1 (Homo sapiens) (UniProt Q8IY84); details: Compound concentration 1000.0 nM
[28] = target: Cyclin-dependent kinase 16 (Homo sapiens) (UniProt Q00536); details: Compound concentration 1000.0 nM
[29] = target: Fibroblast growth factor receptor 1 (Homo sapiens) (UniProt P11362); details: Compound concentration 1000.0 nM
[30] = system: Proto-oncogene tyrosine-protein kinase receptor Ret (Homo sapiens), P07949 [M918T]; details: Compound concentration 1000.0 nM
[31] = target: Platelet-derived growth factor receptor alpha (Homo sapiens) (UniProt P16234); details: Compound concentration 1000.0 nM
[32] = target: SRSF protein kinase 2 (Homo sapiens) (UniProt P78362); details: Compound concentration 1000.0 nM
[33] = system: Epidermal growth factor receptor (Homo sapiens), P00533 [UNDEFINED MUTATION]; details: Compound concentration 1000.0 nM
[34] = target: cGMP-dependent protein kinase 2 (Homo sapiens) (UniProt Q13237); details: Compound concentration 1000.0 nM
[35] = target: Platelet-derived growth factor receptor beta (Homo sapiens) (UniProt P09619); details: Compound concentration 1000.0 nM
[36] = target: Mitogen-activated protein kinase 13 (Homo sapiens) (UniProt O15264); details: Compound concentration 1000.0 nM
[37] = target: Serine/threonine-protein kinase 17A (Homo sapiens) (UniProt Q9UEE5); details: Compound concentration 1000.0 nM
[38] = target: Receptor-type tyrosine-protein kinase FLT3 (Homo sapiens) (UniProt P36888); details: Compound concentration 1000.0 nM; remark: listed apart in the source
[39] = system: Phosphatidylinositol 4,5-bisphosphate 3-kinase catalytic subunit alpha isoform (Homo sapiens), P42336 [H1047Y]; details: Compound concentration 1000.0 nM
[40] = target: Serine/threonine-protein kinase BRSK2 (Homo sapiens) (UniProt Q8IWQ3); details: Compound concentration 1000.0 nM
[41] = target: Serine/threonine-protein kinase 36 (Homo sapiens) (UniProt Q9NRP7); details: Compound concentration 1000.0 nM
[42] = target: Proto-oncogene tyrosine-protein kinase ROS (Homo sapiens) (UniProt P08922); details: Compound concentration 1000.0 nM
[43] = target: Serine/threonine-protein kinase 17B (Homo sapiens) (UniProt O94768); details: Compound concentration 1000.0 nM
[44] = target: 5-hydroxytryptamine receptor 3A (Homo sapiens) (UniProt P46098); details: Compound concentration 10.0 uM

Chain of Receptor-type tyrosine-protein kinase FLT3 (Homo sapiens) (P36888 whole entry, canonical isoform): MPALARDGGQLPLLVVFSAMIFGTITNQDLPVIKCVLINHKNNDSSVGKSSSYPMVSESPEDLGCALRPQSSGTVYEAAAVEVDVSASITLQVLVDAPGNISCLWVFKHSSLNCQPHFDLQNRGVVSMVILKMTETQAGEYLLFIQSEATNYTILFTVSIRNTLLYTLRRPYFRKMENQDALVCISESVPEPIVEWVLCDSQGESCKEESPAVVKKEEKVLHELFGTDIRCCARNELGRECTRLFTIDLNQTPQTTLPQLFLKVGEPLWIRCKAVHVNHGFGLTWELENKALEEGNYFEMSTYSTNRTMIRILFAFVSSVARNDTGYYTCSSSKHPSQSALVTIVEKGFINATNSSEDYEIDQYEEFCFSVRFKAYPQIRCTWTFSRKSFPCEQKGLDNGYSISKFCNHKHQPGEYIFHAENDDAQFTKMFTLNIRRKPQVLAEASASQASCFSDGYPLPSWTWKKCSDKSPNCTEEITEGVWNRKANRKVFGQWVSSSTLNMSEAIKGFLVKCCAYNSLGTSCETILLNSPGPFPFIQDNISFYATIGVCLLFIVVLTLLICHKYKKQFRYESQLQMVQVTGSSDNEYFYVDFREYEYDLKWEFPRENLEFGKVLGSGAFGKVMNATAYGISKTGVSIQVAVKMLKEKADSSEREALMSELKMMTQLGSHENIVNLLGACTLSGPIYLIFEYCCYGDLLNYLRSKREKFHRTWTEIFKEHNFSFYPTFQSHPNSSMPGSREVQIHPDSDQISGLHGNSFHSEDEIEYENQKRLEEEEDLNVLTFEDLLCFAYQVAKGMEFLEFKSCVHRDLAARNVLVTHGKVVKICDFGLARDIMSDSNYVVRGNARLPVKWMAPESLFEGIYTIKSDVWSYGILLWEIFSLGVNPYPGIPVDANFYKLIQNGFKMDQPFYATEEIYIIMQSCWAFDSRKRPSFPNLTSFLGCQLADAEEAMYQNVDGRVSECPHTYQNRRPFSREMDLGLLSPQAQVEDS
Chain of Cyclin-dependent kinase 4 (Homo sapiens) (P11802 whole entry): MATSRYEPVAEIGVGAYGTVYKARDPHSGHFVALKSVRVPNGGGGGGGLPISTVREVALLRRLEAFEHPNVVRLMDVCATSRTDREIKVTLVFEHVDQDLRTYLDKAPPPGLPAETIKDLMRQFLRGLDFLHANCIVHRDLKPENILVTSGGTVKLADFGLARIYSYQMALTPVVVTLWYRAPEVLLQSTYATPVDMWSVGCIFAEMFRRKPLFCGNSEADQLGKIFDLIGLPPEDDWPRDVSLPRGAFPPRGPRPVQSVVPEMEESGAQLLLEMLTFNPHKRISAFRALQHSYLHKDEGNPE
Chain of Cyclin-dependent kinase 16 (Homo sapiens) (Q00536 whole entry): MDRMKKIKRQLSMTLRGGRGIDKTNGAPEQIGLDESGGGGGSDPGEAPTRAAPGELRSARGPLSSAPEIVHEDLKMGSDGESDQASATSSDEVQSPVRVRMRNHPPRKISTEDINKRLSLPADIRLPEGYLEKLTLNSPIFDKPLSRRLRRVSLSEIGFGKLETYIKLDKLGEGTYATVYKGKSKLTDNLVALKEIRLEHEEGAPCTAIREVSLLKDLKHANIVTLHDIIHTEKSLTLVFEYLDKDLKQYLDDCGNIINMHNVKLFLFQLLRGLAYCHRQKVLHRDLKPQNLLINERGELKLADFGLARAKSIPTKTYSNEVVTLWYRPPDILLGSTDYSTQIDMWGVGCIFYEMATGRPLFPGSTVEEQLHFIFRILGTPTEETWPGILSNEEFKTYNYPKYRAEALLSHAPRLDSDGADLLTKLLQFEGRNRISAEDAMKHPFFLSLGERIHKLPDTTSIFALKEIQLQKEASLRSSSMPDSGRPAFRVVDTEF
Chain of 5'-AMP-activated protein kinase catalytic subunit alpha-1 (Homo sapiens) (Q13131 whole entry, looked up): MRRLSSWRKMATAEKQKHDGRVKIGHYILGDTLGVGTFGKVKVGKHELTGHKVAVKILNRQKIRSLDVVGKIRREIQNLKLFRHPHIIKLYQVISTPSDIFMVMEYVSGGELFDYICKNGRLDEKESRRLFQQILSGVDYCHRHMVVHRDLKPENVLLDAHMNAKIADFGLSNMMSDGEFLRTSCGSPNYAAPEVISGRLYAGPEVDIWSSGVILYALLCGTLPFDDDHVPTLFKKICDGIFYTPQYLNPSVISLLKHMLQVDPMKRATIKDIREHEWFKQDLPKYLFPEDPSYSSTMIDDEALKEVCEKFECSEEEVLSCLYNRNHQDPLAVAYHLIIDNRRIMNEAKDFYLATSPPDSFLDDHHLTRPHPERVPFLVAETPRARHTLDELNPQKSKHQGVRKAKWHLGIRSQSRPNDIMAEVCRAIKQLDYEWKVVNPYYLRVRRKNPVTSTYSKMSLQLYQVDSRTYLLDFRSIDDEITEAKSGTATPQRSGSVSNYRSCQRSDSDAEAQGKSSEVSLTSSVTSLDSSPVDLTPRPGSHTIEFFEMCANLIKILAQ
Chain of Platelet-derived growth factor receptor alpha (Homo sapiens) (P16234 whole entry): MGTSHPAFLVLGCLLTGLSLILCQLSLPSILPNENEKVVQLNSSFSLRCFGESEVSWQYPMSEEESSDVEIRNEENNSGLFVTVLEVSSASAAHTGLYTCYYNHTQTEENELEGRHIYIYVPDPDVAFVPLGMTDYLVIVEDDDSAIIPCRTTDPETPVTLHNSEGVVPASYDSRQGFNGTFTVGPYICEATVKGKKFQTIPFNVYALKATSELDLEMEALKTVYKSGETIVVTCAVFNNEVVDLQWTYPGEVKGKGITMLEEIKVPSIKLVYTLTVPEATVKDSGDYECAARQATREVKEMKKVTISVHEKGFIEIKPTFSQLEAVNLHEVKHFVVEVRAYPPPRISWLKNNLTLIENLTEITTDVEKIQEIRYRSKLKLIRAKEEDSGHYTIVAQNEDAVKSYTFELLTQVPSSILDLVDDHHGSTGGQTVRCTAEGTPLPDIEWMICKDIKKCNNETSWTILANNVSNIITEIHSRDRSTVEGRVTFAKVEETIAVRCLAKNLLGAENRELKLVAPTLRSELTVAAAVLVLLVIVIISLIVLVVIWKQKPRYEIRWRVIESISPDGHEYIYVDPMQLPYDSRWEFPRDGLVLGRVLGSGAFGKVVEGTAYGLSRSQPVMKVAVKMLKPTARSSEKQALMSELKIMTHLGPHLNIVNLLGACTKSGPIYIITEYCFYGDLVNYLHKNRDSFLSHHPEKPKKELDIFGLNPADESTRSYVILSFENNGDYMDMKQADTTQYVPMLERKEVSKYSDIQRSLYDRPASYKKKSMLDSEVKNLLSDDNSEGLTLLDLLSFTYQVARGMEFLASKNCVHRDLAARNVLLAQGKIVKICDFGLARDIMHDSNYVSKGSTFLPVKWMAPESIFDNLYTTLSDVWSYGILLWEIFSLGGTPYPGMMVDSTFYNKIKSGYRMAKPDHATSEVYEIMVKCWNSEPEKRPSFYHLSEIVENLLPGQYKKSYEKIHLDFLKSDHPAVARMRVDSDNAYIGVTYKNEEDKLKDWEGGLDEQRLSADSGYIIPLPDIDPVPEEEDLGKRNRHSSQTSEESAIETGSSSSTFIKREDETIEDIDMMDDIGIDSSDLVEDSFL
Chain of Platelet-derived growth factor receptor beta (Homo sapiens) (P09619 whole entry): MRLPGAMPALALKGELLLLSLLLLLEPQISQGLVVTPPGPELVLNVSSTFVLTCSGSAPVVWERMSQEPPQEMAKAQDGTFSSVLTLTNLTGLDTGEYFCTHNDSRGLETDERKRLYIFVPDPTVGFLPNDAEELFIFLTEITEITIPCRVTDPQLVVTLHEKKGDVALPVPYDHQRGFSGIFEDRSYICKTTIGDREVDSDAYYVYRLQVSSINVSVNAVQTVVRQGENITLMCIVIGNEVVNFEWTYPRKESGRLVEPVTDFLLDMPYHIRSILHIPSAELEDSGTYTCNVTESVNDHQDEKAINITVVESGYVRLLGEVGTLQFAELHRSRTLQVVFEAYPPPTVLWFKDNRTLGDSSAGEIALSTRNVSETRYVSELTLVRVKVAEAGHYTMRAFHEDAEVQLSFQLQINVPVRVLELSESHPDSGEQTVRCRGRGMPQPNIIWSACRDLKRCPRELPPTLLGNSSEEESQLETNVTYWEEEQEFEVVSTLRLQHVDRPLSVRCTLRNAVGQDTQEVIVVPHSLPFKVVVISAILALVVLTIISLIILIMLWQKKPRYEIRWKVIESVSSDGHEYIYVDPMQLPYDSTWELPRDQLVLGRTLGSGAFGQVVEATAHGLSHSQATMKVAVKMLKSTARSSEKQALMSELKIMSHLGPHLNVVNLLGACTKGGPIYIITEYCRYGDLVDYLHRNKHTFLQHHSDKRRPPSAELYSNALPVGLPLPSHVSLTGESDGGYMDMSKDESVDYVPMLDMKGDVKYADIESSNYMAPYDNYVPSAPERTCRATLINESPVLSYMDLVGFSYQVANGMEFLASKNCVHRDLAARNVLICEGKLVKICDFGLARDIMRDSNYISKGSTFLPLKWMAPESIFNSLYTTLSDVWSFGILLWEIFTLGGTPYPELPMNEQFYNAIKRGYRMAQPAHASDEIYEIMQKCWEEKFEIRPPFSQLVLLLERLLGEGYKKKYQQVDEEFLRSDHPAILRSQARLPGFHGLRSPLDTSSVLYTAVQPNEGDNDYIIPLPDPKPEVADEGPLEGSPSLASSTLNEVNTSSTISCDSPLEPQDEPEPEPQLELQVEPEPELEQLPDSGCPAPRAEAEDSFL
Chain of Serine/threonine-protein kinase 17B (Homo sapiens) (O94768 whole entry): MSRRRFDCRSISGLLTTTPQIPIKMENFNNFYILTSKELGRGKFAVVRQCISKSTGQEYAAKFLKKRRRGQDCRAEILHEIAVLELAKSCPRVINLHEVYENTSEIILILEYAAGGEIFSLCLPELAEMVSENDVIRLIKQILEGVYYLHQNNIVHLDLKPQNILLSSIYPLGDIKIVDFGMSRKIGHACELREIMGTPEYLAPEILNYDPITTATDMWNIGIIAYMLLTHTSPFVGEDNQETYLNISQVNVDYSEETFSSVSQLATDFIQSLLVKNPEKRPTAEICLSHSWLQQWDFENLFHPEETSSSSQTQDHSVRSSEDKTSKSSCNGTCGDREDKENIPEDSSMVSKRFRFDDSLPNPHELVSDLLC

O=c1nc(-c2ccccn2)sc2ccccc12 [BTZO-1]
inactive: inhibition [1] 22.9% | residual activity [2] 90% | residual activity [3] 98% | residual activity [4] 96% | residual activity [5] 89% | residual activity [6] 66% | residual activity [7] 100% | residual activity [8] 80% | residual activity [9] 83% | residual activity [10] 84% | residual activity [11] 100% | residual activity [12] 87% | residual activity [13] 100% | residual activity [14] 83% | residual activity [15] 100% | residual activity [16] 75% | residual activity [17] 54% | residual activity [18] 84% | residual activity [19] 90% | residual activity [20] 68% | residual activity [21] 100% | residual activity [22] 100% | residual activity [23] 61% | residual activity [24] 100% | residual activity [25] 100% | residual activity [26] 100% | residual activity [27] 100% | residual activity [28] 100% | residual activity [29] 100% | residual activity [30] 81% | residual activity [31] 89% | residual activity [32] 100% | residual activity [33] 70% | residual activity [34] 96% | residual activity [35] 83% | residual activity [36] 99% | residual activity [37] 100% | residual activity [38] 93% | residual activity [39] 94% | residual activity [40] 100% | residual activity [41] 82% | residual activity [42] 100% | residual activity [43] 80% | inhibition [44] 17.2%

O=C1NC(c2ccccn2)Sc2ccccc21 (stereo not drawn) [BTZO-4]
inactive: inhibition [1] -3.91% | residual activity [2] 77% | residual activity [3] 92% | residual activity [4] 75% | residual activity [5] 92% | residual activity [6] 58% | residual activity [7] 92% | residual activity [8] 76% | residual activity [9] 81% | residual activity [10] 83% | residual activity [11] 89% | residual activity [12] 87% | residual activity [13] 86% | residual activity [14] 86% | residual activity [15] 100% | residual activity [16] 81% | residual activity [17] 51% | residual activity [18] 80% | residual activity [19] 81% | residual activity [20] 61% | residual activity [21] 88% | residual activity [22] 99% | residual activity [23] 78% | residual activity [24] 100% | residual activity [25] 100% | residual activity [26] 96% | residual activity [27] 100% | residual activity [28] 100% | residual activity [29] 85% | residual activity [30] 64% | residual activity [31] 76% | residual activity [32] 100% | residual activity [33] 86% | residual activity [34] 90% | residual activity [35] 83% | residual activity [36] 100% | residual activity [37] 86% | residual activity [38] 77% | residual activity [39] 67% | residual activity [40] 100% | residual activity [41] 79% | residual activity [42] 95% | residual activity [43] 73% | inhibition [44] -1.17%
